Results on three compounds are retold here after patent publication US20260256909A1, “COMBINATION OF A BTN3A ACTIVATING ANTIBODY, A BCL2 INHIBITOR AND HYPOMETHYLATING AGENT FOR USE IN TREATING CANCER” (Imcheck Therapeutics, priority 2022, published 2026).

Holding throughout (type): cell-based, human
The subject of one assay is Raji (Burkitts Lymphoma). Kind of assay: Killing of Raji cells in co-culture with HD-PBMC (flow cytometry). The settings on record: co-culture with HD-PBMC ratio 5:1, 48 hrs. On the procedure:
(§1) Raji cells (Burkitt Lymphoma) or JVM2 cells (Chronic-B cell Leukemia) were co-cultured with HD-PBMC at ratio 5:1 in presence of ICT01 or isotype control (0.1 μg/mL or 1 μg/mL). After 6 hrs, indicated concentrations of Venetoclax, 5-Azacytidine or the combination were added to the culture. Relative numbers of live Raji (A) or JVM2 (B) were monitored after 48 hrs by flow cytometry. […] N=6, each dot represents one healthy donor, * p<0.05, ** p<0.01, 2 way ANOVA.
(§2) The effect of Venetoclax and 5-Azacytidine on BTN3A activating antibody-induced killing of Burkitt Lymphoma and Chronic-B-cell leukemia cell lines by Vγ9Vδ2 T cells was assessed by measuring the relative number of surviving target cells in a HD-PBMC-Target cell co-culture using flow cytometry.

For assay [1], the system named is JVM-2 (Chronic B-cell leukemia). Kind of assay: Killing of JVM-2 cells in co-culture with HD-PBMC (flow cytometry). The note with it: co-culture with HD-PBMC ratio 5:1, 48 hrs. On the procedure: as §1, §2
For orientation: In flow cytometry, cells or beads pass a laser one at a time.

A further assay has as its system MOLM14 cells. Kind of assay: Killing of MOLM14 AML cells in co-culture with HD-PBMC (flow cytometry). The settings on record: ICT01 0.1 μg/mL, HD-PBMC ratio 5:1, 2 days. As to the method:
KG1a or MOLM14 AML cell lines were co-cultured with HD-PBMC at ratio 5:1 in presence of ICT01 or isotype control (0.1 μg/mL). After 6 hrs, indicated concentrations of ABT-737, Navitoclax or MIK665 were added to the culture. A) Relative numbers of live KG1a cells (Mean±SEM) after 2 days of co-culture with HD-PBMC in presence of ICT01 (black) or its isotype control hIgG1S (light grey) and treatment with indicated concentration of ABT-737. B) Relative numbers of live KG1a cells (Mean±SEM) after 2 days of co-culture with HD-PBMC in presence of ICT01 (black) or its isotype control hIgG1S (light grey) and treatment with indicated concentration of Navitoclax. C) Relative numbers of live MOLM14 cells (Mean±SEM) after 2 days of co-culture with HD-PBMC in presence of ICT01 (black) or its isotype control hIgG1S (light grey) and treatment with indicated concentration of MIK665. N=6 HD, each dot represents one healthy donor, * p<0.05, 2 way ANOVA.
The effect of the three Bcl-2 family member inhibitors ABT-737, Navitoclax and MIK665, on ICT01-induced killing of AML cell lines by Vγ9Vδ2 T cells was assessed by measuring the relative number of surviving target cells in a HD-PBMC-AML cells co-culture using flow cytometry.
For assays using ABT-737 or Navitoclax, KG1a cells were used. […] Therefore, MOLM14 cells, which express MCL-1, were used in killing assays assessing the activity of ICT01 combined with MIK665.

For the next assay, the system named is Vγ9Vδ2 T cells. In words: Proliferation of Vγ9Vδ2 T cells in HD-PBMC (CellTrace Violet). The settings on record: day 4, ICT01 1 μg/mL; for ICT01 and IL2-induced proliferation of Vγ9Vδ2 T cells: 50 IU/mL IL2; for increase of ICT01-induced proliferation of Vγ9Vδ2 T cells: absence of IL2. As to the method:
Finally, freshly isolated human PBMC from healthy donors (HD, n=6) were labeled with CellTrace Violet stain (CTV, Invitrogen) to determine cell proliferation upon treatment with ICT01 or its isotype control (hIgG1S) used at 1 μg/mL in the presence or absence of increasing concentrations of Venetoclax (0-0.1 μM), 5-Azacytidine (0-0.4 μM) or the combination in PBMC medium (RPMI 1640 Medium supplemented with 10% FBS, 1% Penicillin/Streptomycin and 1 mM Sodium Pyruvate). Half of the cells were additionally treated with 50 IU/mL IL2. Cells were harvested on day 4, centrifuged at 1800 rpm for 5 minutes and then incubated 10 minutes at RT with 25 μl of FcR blocking reagent (Miltenyi Biotec) before adding 25 μL of the following antibody mix prepared in PBS+2% FBS+2 mM EDTA (FACS buffer): anti-CD4-BV650, CD56-FITC, Vδ2-PE, CD3-PE-CF594 and CD8-A700 antibodies for the identification of immune subsets, and a viability marker (LIVE/DEAD™ Fixable Dead Cell Stain) was added to distinguish live from dead cells. Cells were incubated 20 minutes at 4° C. and washed 2 times in FACS buffer before flow cytometry analysis.

The test system of a further assay is KG1a AML cell line. Kind of assay: Sensitivity of KG1a AML cell line (Cell Titer Glo luminescence). The settings on record: for EC50: Homo sapiens, KG-1a, 48 h, 2 days treatment, luminescence, read-out: EC50 on KG1a AML cells; for mean survival of KG1a AML cells: Venetoclax at 5 μM and/or 5-Azacytidine at 10 μM, 2 days. On the procedure: First, to assess the sensitivity of KG1a AML cell line to Venetoclax and 5-Azacytidine treatment in vitro, cells were treated with increasing concentrations of Venetoclax (0-5 μM), 5-Azacytidine (0-10 μM) or the combination for 2 days in cell culture medium (alpha-MEM+Glutamax supplemented with 20% Fetal Bovine Serum (FBS) and 1 mM Sodium Pyruvate). On day 2, cells were centrifuged at 1800 rpm for 5 minutes and the supernatant discarded. Cells were lysed with Cell Titer Glo reagent (Promega), and ATP amount was monitored as a measure of living cells using luminescence.

Consider “ICT01: humanized BTN3A activating antibody of mAb 7.2, heavy chain SEQ ID NO: 4, light chain SEQ ID NO: 6, silent IgG1 L247F/L248E/P350S”, for which the “decrease of live Raji cells as compared to hIgG1S alone condition (control)” value in the assay with Raji (Burkitts Lymphoma) is ~ 22%. In addition, the “decrease of live JVM-2 cells as compared to hIgG1S alone condition (control)” value in assay [1] is recorded as ~ 16%. Moreover, the “MOLM14 cell death as compared to control condition” value with MOLM14 cells is given as ~ 56%.
In the case of `CC1(C)CCC(CN2CCN(c3ccc(C(=O)NS(=O)(=O)c4ccc(NCC5CCOCC5)c([N+](=O)[O-])c4)c(Oc4cnc5[nH]ccc5c4)c3)CC2)=C(c2ccc(Cl)cc2)C1` [Venetoclax, 4-[4-[[2-(4-chlorophenyl)-4,4-dimethylcyclohexen-1-yl]methyl]piperazin-1-yl]-N-[3-nitro-4-(oxan-4-ylmethylamino)phenyl]sulfonyl-2-(1H-pyrrolo[2,3-b]pyridin-5-yloxy)benzamide], in the assay with Vγ9Vδ2 T cells, the “ICT01 and IL2-induced proliferation of Vγ9Vδ2 T cells” value is listed as “unaffected”; the “increase of ICT01-induced proliferation of Vγ9Vδ2 T cells” value was ~ 10%. Besides, in the assay on KG1a AML cell line, the EC50 (usually the concentration needed to bring the measured effect to its halfway point) is 1.82 µM and the “mean survival of KG1a AML cells” value is 20.2%.
The like results for `Nc1ncn([C@@H]2O[C@H](CO)[C@@H](O)[C@H]2O)c(=O)n1` [5-Azacytidine, 4-amino-1-[(2R,3R,4S,5R)3,4-dihydroxy-5-(hydroxymethyl)oxolan-2-yl]-1,3,5-triazin-2-one] were, in that order, “unaffected”, “not observed”, 4.72 µM and 47.2%.
